Assay results reported in the NIST ThermoML archive (doi:10.1016/j.fluid.2017.12.010).

Conditions: Liquid, Vibrating tube method

CCCCCCCCCC [decane]
Conditions	mass density [kg/m3]
283.55 K, 5000 kPa	742
283.56 K, 3000 kPa	740
283.56 K, 20000 kPa	752
283.56 K, 30000 kPa	758
283.56 K, 40000 kPa	763
283.56 K, 50000 kPa	769
283.56 K, 60000 kPa	774
283.56 K, 70000 kPa	779
283.56 K, 80000 kPa	783
283.56 K, 90000 kPa	788
283.57 K, 1000 kPa	739
283.57 K, 10000 kPa	745
283.58 K, 100 kPa	738
293.48 K, 100 kPa	731
293.48 K, 1000 kPa	731
293.49 K, 5000 kPa	734
293.49 K, 10000 kPa	738
293.49 K, 20000 kPa	745
293.5 K, 30000 kPa	751
293.5 K, 40000 kPa	757
293.5 K, 50000 kPa	763
293.5 K, 100000 kPa	787
293.51 K, 60000 kPa	768
293.51 K, 70000 kPa	773
293.51 K, 80000 kPa	778
293.51 K, 90000 kPa	783
303.42 K, 100 kPa	723
303.42 K, 1000 kPa	724
303.42 K, 10000 kPa	731
303.42 K, 30000 kPa	745
303.42 K, 40000 kPa	751
303.42 K, 70000 kPa	768
303.42 K, 80010 kPa	773
303.42 K, 90000 kPa	777
303.43 K, 5000 kPa	727
303.43 K, 20000 kPa	738
303.43 K, 50000 kPa	757
303.43 K, 60000 kPa	762
303.43 K, 100000 kPa	782
313.35 K, 100 kPa	716
313.35 K, 1000 kPa	717
313.35 K, 5000 kPa	721
313.35 K, 40000 kPa	746
313.36 K, 20000 kPa	732
313.36 K, 50000 kPa	752
313.36 K, 70000 kPa	763
313.36 K, 80000 kPa	768
313.36 K, 90000 kPa	773
313.36 K, 100000 kPa	777
313.37 K, 10000 kPa	725
313.37 K, 30000 kPa	739
313.37 K, 60000 kPa	757
323.24 K, 100 kPa	708
323.24 K, 1000 kPa	709
323.24 K, 100000 kPa	771
323.25 K, 5000 kPa	712
323.25 K, 10000 kPa	717
323.25 K, 20000 kPa	725
323.25 K, 30000 kPa	732
323.25 K, 40000 kPa	739
323.25 K, 50000 kPa	745
323.25 K, 60000 kPa	751
323.25 K, 70000 kPa	757
323.25 K, 80000 kPa	762
323.25 K, 90000 kPa	767
333.12 K, 5000 kPa	705
333.12 K, 10000 kPa	710
333.12 K, 20000 kPa	718
333.13 K, 100 kPa	700
333.13 K, 1000 kPa	701
333.13 K, 30000 kPa	726
333.13 K, 80000 kPa	757
333.13 K, 90000 kPa	762
333.13 K, 100000 kPa	767
333.14 K, 40000 kPa	733
333.14 K, 50000 kPa	740
333.14 K, 60000 kPa	746
333.14 K, 70000 kPa	751
343.01 K, 100 kPa	693
343.01 K, 1000 kPa	694
343.01 K, 10000 kPa	703
343.01 K, 20000 kPa	712
343.01 K, 30000 kPa	720
343.01 K, 40000 kPa	727
343.01 K, 50000 kPa	734
343.01 K, 60000 kPa	740
343.02 K, 5000 kPa	698
343.02 K, 70000 kPa	746
343.02 K, 80000 kPa	752
343.02 K, 90000 kPa	757
343.02 K, 100000 kPa	762
352.87 K, 100 kPa	686
352.87 K, 1000 kPa	687
352.87 K, 5000 kPa	691
352.88 K, 10000 kPa	696
352.88 K, 20000 kPa	706
352.88 K, 30000 kPa	714
352.88 K, 40000 kPa	722
352.88 K, 50000 kPa	729
352.88 K, 60000 kPa	735
352.89 K, 70000 kPa	741
352.89 K, 80000 kPa	747
352.89 K, 90000 kPa	753
352.89 K, 100000 kPa	758
362.69 K, 100 kPa	677
362.69 K, 1000 kPa	678
362.7 K, 5000 kPa	683
362.7 K, 10000 kPa	689
362.71 K, 20000 kPa	699
362.71 K, 30000 kPa	708
362.71 K, 40000 kPa	716
362.71 K, 50000 kPa	723
362.71 K, 60000 kPa	730
362.72 K, 70000 kPa	736
362.72 K, 80000 kPa	742
362.72 K, 90000 kPa	747
362.72 K, 100000 kPa	753

CCCCCCCCCCCC [dodecane]
Conditions	mass density [kg/m3]
283.29 K, 100 kPa	756
283.29 K, 1000 kPa	757
283.29 K, 3000 kPa	758
283.3 K, 5000 kPa	760
283.3 K, 10000 kPa	763
283.3 K, 30000 kPa	775
283.3 K, 40000 kPa	780
283.3 K, 50000 kPa	785
283.3 K, 60000 kPa	790
283.31 K, 20000 kPa	769
283.31 K, 70000 kPa	795
283.32 K, 80000 kPa	799
283.32 K, 90000 kPa	803
293.17 K, 100 kPa	749
293.18 K, 1000 kPa	750
293.19 K, 5000 kPa	753
293.19 K, 10000 kPa	756
293.19 K, 20000 kPa	763
293.19 K, 30000 kPa	769
293.19 K, 40000 kPa	774
293.19 K, 50000 kPa	780
293.19 K, 70000 kPa	789
293.19 K, 80000 kPa	794
293.19 K, 90000 kPa	798
293.19 K, 100000 kPa	802
293.2 K, 60000 kPa	785
303.04 K, 30000 kPa	762
303.04 K, 100000 kPa	797
303.05 K, 100 kPa	742
303.05 K, 1000 kPa	743
303.05 K, 5000 kPa	746
303.05 K, 20000 kPa	756
303.05 K, 50000 kPa	774
303.05 K, 60000 kPa	779
303.05 K, 70000 kPa	784
303.05 K, 80000 kPa	789
303.05 K, 90000 kPa	793
303.06 K, 10000 kPa	749
303.06 K, 40000 kPa	768
312.89 K, 100 kPa	736
312.89 K, 1000 kPa	737
312.9 K, 5000 kPa	740
312.9 K, 10000 kPa	744
312.9 K, 20000 kPa	751
312.9 K, 30000 kPa	757
312.9 K, 40000 kPa	763
312.9 K, 50000 kPa	769
312.9 K, 60000 kPa	774
312.9 K, 70000 kPa	780
312.9 K, 80000 kPa	784
312.9 K, 90000 kPa	789
312.9 K, 100000 kPa	793
322.83 K, 100 kPa	727
322.83 K, 1000 kPa	728
322.83 K, 5000 kPa	732
322.83 K, 10000 kPa	736
322.83 K, 20000 kPa	743
322.83 K, 30000 kPa	750
322.83 K, 40000 kPa	756
322.83 K, 50000 kPa	762
322.83 K, 60000 kPa	768
322.83 K, 70000 kPa	773
322.83 K, 80000 kPa	778
322.83 K, 90000 kPa	783
322.83 K, 100000 kPa	787
332.74 K, 100 kPa	720
332.74 K, 1000 kPa	721
332.74 K, 5000 kPa	725
332.74 K, 10000 kPa	729
332.74 K, 20000 kPa	737
332.74 K, 30000 kPa	744
332.74 K, 40000 kPa	750
332.74 K, 50000 kPa	757
332.74 K, 60000 kPa	762
332.74 K, 70000 kPa	768
332.74 K, 80000 kPa	773
332.74 K, 90000 kPa	778
332.75 K, 100000 kPa	782
342.67 K, 100 kPa	713
342.67 K, 1000 kPa	714
342.67 K, 5000 kPa	718
342.67 K, 10000 kPa	722
342.67 K, 20000 kPa	731
342.67 K, 30000 kPa	738
342.67 K, 40000 kPa	745
342.67 K, 50000 kPa	751
342.67 K, 60000 kPa	757
342.67 K, 69990 kPa	763
342.67 K, 80000 kPa	768
342.67 K, 90000 kPa	773
342.67 K, 100000 kPa	778
352.58 K, 100 kPa	707
352.58 K, 1000 kPa	708
352.58 K, 5000 kPa	712
352.58 K, 10000 kPa	716
352.58 K, 20000 kPa	725
352.58 K, 30000 kPa	733
352.58 K, 40000 kPa	740
352.58 K, 50000 kPa	747
352.58 K, 60000 kPa	753
352.58 K, 70000 kPa	759
352.58 K, 80000 kPa	764
352.58 K, 90000 kPa	769
352.58 K, 100000 kPa	774
362.48 K, 5000 kPa	704
362.48 K, 10000 kPa	709
362.48 K, 20000 kPa	718
362.48 K, 30000 kPa	726
362.48 K, 50000 kPa	741
362.48 K, 80000 kPa	759
362.48 K, 90000 kPa	764
362.49 K, 100 kPa	699
362.49 K, 1000 kPa	700
362.49 K, 40000 kPa	734
362.49 K, 60000 kPa	747
362.49 K, 70000 kPa	753
362.49 K, 100000 kPa	769
